How the values were obtained:
A549 cells = assay: Cell viability assay (MTS) in A549 cells; type: cell-based; details: 10 μM, mean, n = 3
Description: (§1) HepG2, Huh7, H1299, HT29, AGS and A549 cells were purchased from the Korean Cell Line Bank (Seoul, Korea) and HaCaT cells were obtained from Prof. Sohee Kwon (Yonsei University, Korea). Liver cancer cells (HepG2), human keratinocyte cells (HaCaT), and lung cancer cells (A549) were grown in DMEM high-glucose medium, liver cancer cells (Huh7) and non-small cell lung cancer cells (H1299) were grown in RPMI 1640, and gastric cancer cells (AGS) were grown in Coon’s modified F12 medium. All media were supplemented with 10% FBS, 100 Units/mL penicillin, and 100 μg/mL streptomycin. All cells were incubated at 37 °C, 5% CO2 and 95% humidity.
(§2) Cell viability assay was conducted using Cell Titer 96® AQueous One Solution Cell proliferation Assay kit (Promega, Madison, WI, USA). Five cancer cells and HaCaT cells were plated in 96-well microplates with growth medium for 24 h. When cell confluency reached ~30%, cells were treated with DMSO (vehicle) and test compounds. The medium and test compounds were replaced every 24 h. To measure cell viability, the cells were incubated with MTS solution for 1 h. The absorbance was measured by using Infinite M200 microplate reader (Tecan, Männedorf, Switzerland) at 490 nm.
(§3) Figure 2 Effect of 5r on cell viability in HepG2, Huh7, AGS, H1299, A549, HaCaT, NIH3T3, and HEK293T cells. (A–H) HepG2, Huh7, AGS, H1299, A549, HaCaT, NIH3T3, and HEK293T cells were cultured with 5r at the indicated concentrations for 72 h, and medium was replaced every 24 h with freshly added 5r. Cell viability was measured by MTS analysis (mean ± S.D., n = 5). * p < 0.05, ** p < 0.01, *** p < 0.001.

H1299 cells = assay: Cell viability assay (MTS) in H1299 cells; type: cell-based; details: 10 μM, mean, n = 3
Description: as §1, §2, §3

HepG2 cells = assay: Cell viability assay (MTS) in HepG2 cells; type: cell-based; details: mean; for IC50: Homo sapiens, MTS, n = 5, 72 h for 5r (Figure 2)
Description: as §1, §2, §3

AGS cells = assay: Cell viability assay (MTS) in AGS cells; type: cell-based; details: 10 μM, mean, n = 3
Description: as §1, §2, §3

Huh7 cells = assay: Cell viability assay (MTS) in Huh7 cells; type: cell-based; details: Homo sapiens, Huh-7, mean, n = 5, 72 h for 5r (Figure 2)
Description: as §1, §2, §3

HaCaT cells = assay: Cell viability assay (MTS) in HaCaT cells; type: cell-based, human; details: Homo sapiens, mean, n = 5
Description: as §1, §2, §3

HT29 cells = assay: Cell viability assay (MTS) in HT29 cells; type: cell-based; details: mean, n = 3
Description: as §1, §2

caspase-3 [1] = assay: Caspase-3 activity assay in Huh7 cells; type: cell-based; details: 20 μM Ac-DEVD-CHO, Figure 4D
Description: (§4) HepG2 and Huh7 cells were plated in 96-black-well plate to about 40% confluence, and then 5r was treated for 24 h. To assess activity of caspase-3, the growth medium was changed with 100 μL of PBS containing 1 μM caspase-3 substrate, NucView 488, and incubated at room temperature. After 20 min, 1 μM Hoechst 33342 was treated to stain the cells. Activity of caspase-3 was suppressed by Ac-DEVD-CHO, a selective caspase-3 inhibitor. FLUOstar Omega microplate reader (BMG Labtech, Ortenberg, Germany) was used to assess the fluorescence of NucView 488 and Hoechst, and Lionheart FX Automated Microscope (BioTek, Winooski, VT, USA) was used to acquire the fluorescence microscopy images.
(§5) Figure 4 Effect of 5r on activity of caspase-3 and cleavage of PARP in HepG2 and Huh7 cells. (A,B) HepG2 and Huh7 cells were incubated with 3 µM 5r for 24 h and then incubated with 1 µM caspase-3 substrate (green) and 1 µM Hoechst 33,342 (blue) for 20 min before image acquisition. (C,D) Cells were cultured with 5r at the indicated concentrations for 24 h and then 1 μM caspase-3 substrate was treated for 20 min. Caspase-3 was inhibited by 20 μM Ac-DEVD-CHO (mean ± S.D., n = 3). (E,F) Cells were cultured with 5r at the indicated concentrations for 24 h, and expression level of PARP, cleaved-PARP and β-actin were measured by Western blot analysis. […]

caspase-3 [2] = assay: Caspase-3 activity assay in HepG2 cells; type: cell-based; details: 20 μM Ac-DEVD-CHO, Figure 4C
Description: as §4, §5

hepatocellular carcinoma = tested on: hepatocellular carcinoma; design: method as in PMID 10951336, PMID 11408798, PMID 11462924, PMID 12115351, PMID 14612894; details: gemcitabine alone; phase 2 clinical trials; cited from earlier work

Compound | IC50 (HepG2 cells) | IC50 (Huh7 cells) | IC50 (HaCaT cells) | other results
N#Cc1c2c3cccn3c(-c3cccs3)nc2n2ccccc12 [Compound 5n, 5-(Thiophen-2-yl)pyrrolo[1′,2′:1,6]pyrimido[5,4-b]indolizine-12-carbonitrile] | 0.28 µM | 0.75 µM | 13.3 µM | % Inhibition of Cell Viability at 10 μM A549 (A549 cells): 38.0%; % Inhibition of Cell Viability at 10 μM H1299 (H1299 cells): 70.3%; % Inhibition of Cell Viability at 10 μM HepG2 (HepG2 cells; 10 μM, n = 3): 98.9%; % Inhibition of Cell Viability at 10 μM AGS (AGS cells): <25%; % Inhibition of Cell Viability at 10 μM HT29 (HT29 cells): 48.4%
Ac-DEVD-CHO [reference compound] |  |  |  | Inhibition of 5r-increased caspase-3 activity in Huh7 cells (caspase-3 [1]): fully inhibited; Inhibition of 5r-increased caspase-3 activity in HepG2 cells (caspase-3 [2]): fully inhibited
Nc1ccn([C@@H]2O[C@H](CO)[C@@H](O)C2(F)F)c(=O)n1 [gemcitabine] |  |  |  | Response rate (hepatocellular carcinoma): 0–20%
COc1ccc(-c2nc3c(c(C#N)c4ccccn43)c3cccn23)c(O)c1 [Compound 5z, 5-(2-Hydroxy-4-methoxyphenyl)pyrrolo[1′,2′:1,6]pyrimido[5,4-b]indolizine-12-carbonitrile] | 0.64 µM | 0.71 µM | 1.95 µM | 
N#Cc1c2c3[nH]c4ccccc4c3c(-c3cccs3)nc2n2ccccc12 [Compound 10d, 7-(Thiophen-2-yl)-12H-indolizino[2′,3′:5,6]pyrido[4,3-b]indole-13-carbonitrile] | 2.27 µM | 0.6 µM | 0.81 µM | 
N#Cc1c2c3cccn3c(-c3ccccc3Br)nc2n2ccccc12 [Compound 5w, 5-(2-Bromophenyl)pyrrolo[1′,2′:1,6]pyrimido[5,4-b]indolizine-12-carbonitrile] | 1.75 µM | 2.72 µM | 9.53 µM | 
COc1cc(O)c(-c2nc3c(c(C#N)c4ccccn43)c3cccn23)cc1OC [Compound 5aa, 5-(2-Hydroxy-4,5-dimethoxyphenyl)pyrrolo[1′,2′:1,6]pyrimido[5,4-b]indolizine-12-carbonitrile] | 1.17 µM | 0.87 µM | 2.21 µM | 
N#Cc1c2c3cccn3c(-c3cc(Cl)ccc3O)nc2n2ccccc12 [Compound 5ab, 5-(5-Chloro-2-hydroxyphenyl)pyrrolo[1′,2′:1,6]pyrimido[5,4-b]indolizine-12-carbonitrile] | 0.84 µM | 0.71 µM | 2.3 µM | 
COc1ccc(O)c(-c2nc3c(c(C#N)c4ccccn43)c3cccn23)c1 [Compound 5y, 5-(2-Hydroxy-5-methoxyphenyl)pyrrolo[1′,2′:1,6]pyrimido[5,4-b]indolizine-12-carbonitrile] | 0.79 µM | 0.64 µM | 2.25 µM | 
N#Cc1c2c3cccn3c(-c3cccc(Cl)c3)nc2n2ccccc12 [Compound 5v, 5-(3-Chlorophenyl)pyrrolo[1′,2′:1,6]pyrimido[5,4-b]indolizine-12-carbonitrile] | 1.48 µM | 1.33 µM | 15.3 µM | 
COc1ccccc1-c1nc2c(c(C#N)c3ccccn32)c2cccn12 [Compound 5p, 5-(2-Methoxyphenyl)pyrrolo[1′,2′:1,6]pyrimido[5,4-b]indolizine-12-carbonitrile] | 3.42 µM | 2.25 µM | 16.2 µM | 
N#Cc1c2c3cccn3c(-c3ncc[nH]3)nc2n2ccccc12 [Compound 5x, 5-(1H-Imidazol-2-yl)pyrrolo[1′,2′:1,6]pyrimido[5,4-b]indolizine-12-carbonitrile] | 3.52 µM | 7.85 µM | 24.1 µM | 
N#Cc1c2c3cccn3c(-c3cccnc3)nc2n2ccccc12 [Compound 5o, 5-(Pyridin-3-yl)pyrrolo[1′,2′:1,6]pyrimido[5,4-b]indolizine-12-carbonitrile] | 2 µM | 1.47 µM | 3.98 µM | 

— paper PMC9694334, “Synthesis and Biological Evaluation of a Fused Structure of Indolizine and Pyrrolo[1,2-c]pyrimidine: Identification of Its Potent Anticancer Activity against Liver Cancer Cells” (Pharmaceuticals, 2022)
